Assay results published in patent US20180344726A1, “ABUSE RESISTANT TRANSDERMAL DELIVERY DEVICES AND COMPOSITIONS COMPRISING AN OPIOID AGONIST AND A NON-TRANSDERMALLY DELIVERED N-OXIDE DERIVATIVE OF AN OPIOID ANTAGONIST FOR THE TREATMENT OF PAIN” (priority 2015, published 2018).

Experiment: Concentration of saturated antagonist solutions in phosphate buffer pH 5.0
Type: physicochemical
Details: phosphate buffer pH 5.0, stirred overnight, filtered
Description: The determination of in vitro skin permeation was performed with saturated solutions of the respective antagonist species. Therefore an excess of the antagonist was weighed in phosphate buffer of pH 5.0 and stirred overnight. pH was monitored and, if necessary, adjusted. The cells were incubated at 32° C. Solutions were filtrated through a syringe filter (1 μm PTFE) prior to application into the diffusion cells. Concentrations of the solutions were determined.
The determination of naloxone and naloxone N-oxide in the acceptor medium of the in vitro skin permeations samples (receptor phase) was done by HPLC with UV-detection.

C=CC[N+]1([O-])CC[C@]23c4c5ccc(O)c4O[C@H]2C(=O)CC[C@@]3(O)[C@H]1C5 (stereo partly shown) [Naloxone N-oxide]
Concentration saturated solution c: 3960 µg/mL
